Reference: US4492711A, “Benzamides, their salts, and pharmaceutical compositions containing them” (SANOFI, priority 1982, dated 1985)

Tests used:
[1] = biological target: T1, gastric histamine H2 receptors (Rattus norvegicus, UniProt P25102); assay: Antagonism of gastric hypersecretion induced by histamine in the atropinized rat (Ghosh and Schild modified according to Black et al.); format: in vivo; conditions: intravenous; for Relative potency (cimetidine = 1): ID50-based, compared to cimetidine; for ED50: single dose, histamine i.v. infusion 15 mcmol/kg/hour, read-out: ID50 (dose which inhibits by 50% the gastric hypersecretion induced by histamine)
T1 construct: the gastric secretion is measured by perfusion of a physiological solution at a constant speed in the stomach of the animal; from tissue; host or cells: stomach of the living atropinized rat (in vivo, perfused stomach)
T1 sequence (P25102 whole entry, the tested form may be a part): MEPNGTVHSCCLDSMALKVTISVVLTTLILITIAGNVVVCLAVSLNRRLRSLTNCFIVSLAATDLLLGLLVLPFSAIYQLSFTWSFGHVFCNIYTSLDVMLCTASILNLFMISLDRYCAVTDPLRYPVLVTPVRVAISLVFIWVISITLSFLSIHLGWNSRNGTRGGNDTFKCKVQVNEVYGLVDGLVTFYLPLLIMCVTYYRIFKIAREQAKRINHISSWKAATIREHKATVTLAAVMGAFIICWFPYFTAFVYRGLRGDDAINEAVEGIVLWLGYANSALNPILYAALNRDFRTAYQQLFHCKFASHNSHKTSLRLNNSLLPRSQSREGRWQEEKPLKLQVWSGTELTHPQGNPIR
Procedure: According to this test, a gastric acid hypersecretion is induced by intravenous infusion of a sub-maximal dose of histamine equivalent to 15 mcmol/kg/hour and the gastric secretion is measured by perfusion of a physiological solution at a constant speed in the stomach of the animal.
The ID50 represents the index of the gastric H2 -blocking action.

gastric acid secretion = conditions: as oxalate; cited from earlier work
[2] = test system: hypersecretion induced by dimaprit; assay: Antisecretory activity in the cat bearing a gastric fistula, dimaprit-induced hypersecretion (Emas et al.); format: in vivo; conditions: cat with gastric fistula, intragastric
Text: The antisecretoy activity of the products of the present invention has been evaluated in the cat bearing a gastric fistula according to the method of Emas et al (Gastroenterology, 1960, 39, 771) by using, as hypersecretory agent, dimaprit at the dose of 640 mcg/kg/k.

Compound | Relative potency (cimetidine = 1) [1] | ED50, gastric acid secretion inhibiting activity in the rat (gastric acid secretion) | ED50 [1] | antagonism of the hypersecretion induced by dimaprit ([2]; an hour before dimaprit perfusion (640 mcg/kg/k)) | activity relative to cimetidine against hypersecretion induced by dimaprit ([2]; an hour before dimaprit perfusion, cimetidine as reference)
CN(C)Cc1ccc(CSCCNC(=O)c2ccc(S(N)(=O)=O)cc2)o1 [Compound A, N-[2-(5-dimethylaminomethylfuran-2-ylmethylthio)ethyl]4-sulfamoylbenzamide, reference compound] | 0.42 | 2.54 mg/kg |  |  | 
CNC(=NC#N)Nc1cccc(C(=O)NCCSCc2ccc(CN(C)C)o2)c1 [SR 57970, 3-(2-cyano-3-methylguanidino)-N-[2-(5-dimethylaminomethylfuran-2-ylmethylthio)ethyl]benzamide] | 1.90 |  | 0.5 µmol/kg |  | 
CNC(=O)Nc1cccc(C(=O)NCCSCc2ccc(CN(C)C)o2)c1 [SR 57934, 3-(3-methylureido)-N-[2-(5-dimethylaminomethylfuran-2-ylmethylthio)ethyl]benzamide] | 0.62 |  | 1.53 µmol/kg |  | 
CNC(=C[N+](=O)[O-])NCCSCc1ccc(CN(C)C)o1 [Ranitidine, N-[2-[[5-[(dimethylamino)methyl]furfuryl]thio]ethyl]-N'-methyl-2-nitro-1,1-ethenediamine, reference compound] | 3.80 |  |  |  | 
CNC(=C[N+](=O)[O-])Nc1cccc(C(=O)NCCSCc2ccc(CN(C)C)o2)c1 [SR 58028 A, 3-[N-(1-methylamino-2-nitroethenyl)amino]-N-[2-(5-dimethylaminomethylfuran-2-ylmethylthio)ethyl]benzamide] | 4.13 |  | 0.23 µmol/kg |  | 
CNC(=S)Nc1cccc(C(=O)NCCSCc2ccc(CN(C)C)o2)c1 [SR 57914, 3-(3-methylthioureido)-N-[2-(5-dimethylaminomethylfuran-2-ylmethylthio)ethyl]benzamide] | 2.11 |  | 0.45 µmol/kg | antagonizes in dose depending way the hypersecretion induced by dimaprit | at least equal to that of cimetidine
